Measured values published in patent publication US9326506B2, “Preparation method, agricultural composition and applications of natural brassinolide analogs” (CHENGDU NEWSUN CROPSCIENCE CO., LTD, priority 2012, dated 2016).

Tested on: rice
Experiment: Rice leaf bending assay (leaf inclination angle)
Type: in vivo
Details: for Average angle / Total angle: 48 hr; for Total angle: sum of 20 rice; for Effects on leaf inclination compared among analogues: in the case of high concentrations
Source text: According to a rice leaf bending assay, we measured leaf inclination angle of rice to determine effects of the natural brassinolide analogues on the enhancement of plant development. The larger the leaf inclination angle of rice, the more effects on plant development. The detailed assay procedure is as follows:
The natural brassinolide analogues, BR1, BR2, BR3, BR4, BR5 and BR6, used herein, were those prepared by the method of Example 1. And BR1, BR2, BR3, BR4, BR5 and BR6 were mixed into a mixture of brassinolide analogues (referred to as “BRs”, in which the weight ratio of BR1:BR2:BR3:BR4:BR5:BR6 is 0.4:0.4:0.4:0.4:0.4:98). Respectively the analogues and the mixture were dissolved into 95% (V/V) ethanol solution, and then diluted with pure water to 1 mg/L, 0.1 mg/L, 0.01 mg/L, 0.001 mg/L and 0.0001 mg/L. In addition, pure water was used as a control.
After rice seeds were disinfected by using 5% sodium hypochlorite solution treatment, they were rinsed with distilled water until their pH>7, placed into a petri dish in a dark incubator, and cultured by using water at 30° C.±2° C. for 9 days. Then the nine-day-old etiolated seedlings of rice were cut around the center of the base of second leaf to segments with 1 cm leaf and 1 cm leaf sheath. The leaf segments were floated in distilled water, placed in a dark incubator, cultured at 30° C.±2° C. for 24 hr, and then dried by a filter paper. The dried leaf segments were respectively immersed in the above solutions containing different concentrations of the natural brassinolide analogues or pure water, and cultured in a dark incubator at 30° C.±2° C. for 48 hr. Every solution or pure water contained the leaf segments from 20 rice. Then the inclination angle between the second leaf and the leaf sheath of the leaf segments was measured by a protractor.

SMILES	Average angle (0.0001 mg/l)	Total angle (0.0001 mg/l)	Average angle (0.001 mg/l)	Total angle (0.001 mg/l)	Average angle (0.01 mg/l)	Total angle (0.01 mg/l)	Average angle (0.1 mg/l)	Total angle (0.1 mg/l)	Average angle (1 mg/l)	Total angle (1 mg/l)	Effects on leaf inclination compared among analogues
CC(C)[C@H](C)[C@@H](O)[C@H](O)[C@@H](C)[C@H]1CCC2C3COC(=O)C4C[C@H](O)[C@H](O)C[C@]4(C)C3CC[C@@]21C (stereo partly drawn) [BR1]	5.34 degree	106.8 degree	11.27 degree	225.4 degree	21.05 degree	421 degree	36.25 degree	725 degree	110.75 degree	2215 degree	more than those of BR2, BR3 and BR4
CC(C)C[C@@H](O)[C@H](O)[C@@H](C)[C@H]1CCC2C3CC(=O)C4C[C@H](O)[C@H](O)C[C@]4(C)C3CC[C@@]21C (stereo partly drawn) [BR5]	3.9 degree	78 degree	9.3 degree	186 degree	20.05 degree	401 degree	35 degree	700 degree	110 degree	2200 degree	more than those of BR2, BR3 and BR4
CC(C)(O)CC[C@@H](O)[C@](C)(O)[C@H]1CC[C@@]2(O)[C@@H]3CC(=O)[C@@H]4C[C@@H](O)[C@@H](O)C[C@]4(C)[C@H]3CC[C@]12C [BR6]	4.25 degree	85 degree	7.1 degree	142 degree	23 degree	460 degree	35.5 degree	710 degree	109 degree	2180 degree	more than those of BR2, BR3 and BR4
C=C(C(C)C)[C@@H](O)[C@H](O)[C@@H](C)[C@H]1CCC2C3COC(=O)C4C[C@H](O)[C@H](O)C[C@]4(C)C3CC[C@@]21C (stereo partly drawn) [BR3]	3.84 degree	76.8 degree	6.8 degree	136 degree	12.15 degree	243 degree	21 degree	420 degree	65.3 degree	1306 degree	
CC[C@@H](C(C)C)[C@@H](O)[C@H](O)[C@@H](C)[C@H]1CCC2C3COC(=O)C4C[C@H](O)[C@H](O)C[C@]4(C)C3CC[C@@]21C (stereo partly drawn) [BR2]	4.025 degree	80.5 degree	7.28 degree	145.6 degree	13.25 degree	265 degree	21.15 degree	423 degree	71.25 degree	1425 degree	
CC(C)[C@H](C)[C@@H](O)[C@H](O)[C@@H](C)[C@H]1CCC2C3CC(=O)C4C[C@H](O)CC[C@]4(C)C3CC[C@@]21C (stereo partly drawn) [BR4]	3.8 degree	76 degree	6.5 degree	130 degree	12.25 degree	245 degree	21.4 degree	428 degree	64 degree	1280 degree	
